The values that follow come from US8901118B2, “Compounds and methods for kinase modulation, and indications therefor” (Plexxikon Inc., priority 2010, dated 2014).

Bounds are passed on as bounds.

What all share (assay type): cell-based
One assay deals with T1, BCR-NTRK2 BaF3 cells (Homo sapiens, UniProt Q16620).
T1 construct: fused on or other part: P11274 (Breakpoint cluster region protein)
Nature of the assay: BaF3 BCR-NTRK2 cell proliferation assay (ATPlite). The conditions noted are these: read-out: Inhibition of Cell Proliferation IC50, BCR/BaF3 TrkB. In a few lines: (§1)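 Proliferation was run for 3 days at 37 °C against 8-point 1:3 titrations with 10 μM as the top final concentration. Seeding was 10,000 cells/well for BaF3 BCR-fusion lines, grown without IL-3, and 25,000 cells/well for MV-4-11. IC50 was derived from ATPlite luminescence read as cell number.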
Background: Cellular ATP, detected with luciferase, serves as a proxy for viable cell number.

The next assay deals with T2, BCR-NTRK1 BaF3 cells (Homo sapiens, UniProt P04629).
T2 construct: fused on or other part: P11274 (Breakpoint cluster region protein)
Nature of the assay: BaF3 BCR-NTRK1 cell proliferation assay (ATPlite). Particulars: read-out: Inhibition of Cell Proliferation IC50, BCR/BaF3 TrkA. In a few lines: as §1

The target of the next assay is T3, BCR-KIT BaF3 cells (Homo sapiens, UniProt P10721).
T3 construct: fused on or other part: P11274 (Breakpoint cluster region protein)
Nature of the assay: BaF3 BCR-KIT cell proliferation assay (ATPlite). Particulars: read-out: Inhibition of Cell Proliferation IC50, BCR/BaF3 Kit. In a few lines: as §1

T1 sequence (Q16620 538-807): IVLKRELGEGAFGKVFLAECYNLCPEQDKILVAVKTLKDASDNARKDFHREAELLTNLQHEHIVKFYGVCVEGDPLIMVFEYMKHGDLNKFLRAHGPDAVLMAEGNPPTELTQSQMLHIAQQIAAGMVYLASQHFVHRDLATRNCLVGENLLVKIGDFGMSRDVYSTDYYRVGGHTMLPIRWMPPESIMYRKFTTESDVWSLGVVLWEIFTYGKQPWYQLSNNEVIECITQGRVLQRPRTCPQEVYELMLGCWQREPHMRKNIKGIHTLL
T2 sequence (P04629 510-781): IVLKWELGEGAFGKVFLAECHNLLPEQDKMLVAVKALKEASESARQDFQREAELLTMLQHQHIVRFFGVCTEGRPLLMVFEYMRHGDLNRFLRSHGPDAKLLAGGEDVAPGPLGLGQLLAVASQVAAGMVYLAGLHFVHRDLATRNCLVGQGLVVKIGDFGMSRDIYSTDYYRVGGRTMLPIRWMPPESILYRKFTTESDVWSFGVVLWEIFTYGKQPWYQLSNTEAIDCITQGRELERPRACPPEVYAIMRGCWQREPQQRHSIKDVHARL
T3 sequence (P10721 589-937): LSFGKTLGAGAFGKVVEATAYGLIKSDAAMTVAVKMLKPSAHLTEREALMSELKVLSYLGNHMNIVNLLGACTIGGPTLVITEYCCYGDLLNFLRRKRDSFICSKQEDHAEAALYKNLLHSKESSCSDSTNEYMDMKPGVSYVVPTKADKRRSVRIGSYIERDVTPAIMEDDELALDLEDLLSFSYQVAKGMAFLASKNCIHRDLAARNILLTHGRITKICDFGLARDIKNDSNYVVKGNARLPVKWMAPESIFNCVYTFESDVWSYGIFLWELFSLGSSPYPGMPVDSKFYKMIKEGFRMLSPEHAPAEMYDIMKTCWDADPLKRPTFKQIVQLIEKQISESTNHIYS

For the compound `CCOc1ccc(Nc2ncc(Cc3c[nH]c4ncc(C)cc34)cn2)cc1` [Compound P-3026, (4-Ethoxy-phenyl)-[5-(5-methyl-1H-pyrrolo[2,3-b]pyridin-3-ylmethyl)-pyrimidin-2-yl]-amine], the IC50 on BCR-NTRK2 BaF3 cells, at BCR-NTRK1 BaF3 cells and on BCR-KIT BaF3 cells was below 100 nM in each case.

For the compound `CCOc1ccc(Nc2ncc(Cc3c[nH]c4ncc(C)cc34)cn2)cn1` [Compound P-3027, (6-Ethoxy-pyridin-3-yl)-[5-(5-methyl-1H-pyrrolo[2,3-b]pyridin-3-ylmethyl)-pyrimidin-2-yl]-amine], the figures for the IC50 at BCR-NTRK2 BaF3 cells, on BCR-NTRK1 BaF3 cells and on BCR-KIT BaF3 cells were below 1000 nM, below 100 nM and below 100 nM, respectively.

Regarding `Cc1cnc2[nH]cc(Cc3cnc(Nc4cc(-c5ccc(F)cc5)n[nH]4)nc3)c2c1` [Compound P-3028, [5-(4-Fluoro-phenyl)-2H-pyrazol-3-yl]-[5-(5-methyl-1H-pyrrolo[2,3-b]pyridin-3-ylmethyl)-pyrimidin-2-yl]-amine], the IC50 at BCR-NTRK2 BaF3 cells is below 1000 nM; on BCR-NTRK1 BaF3 cells, below 100 nM; at BCR-KIT BaF3 cells, below 100 nM.

On to `Cc1cnc2[nH]cc(Cc3cnc(Nc4cc(C(C)(C)C)n[nH]4)nc3)c2c1` [Compound P-3029, (5-tert-Butyl-2H-pyrazol-3-yl)-[5-(5-methyl-1H-pyrrolo[2,3-b]pyridin-3-ylmethyl)-pyrimidin-2-yl]-amine], for which the results for the IC50 on BCR-NTRK2 BaF3 cells, on BCR-NTRK1 BaF3 cells and on BCR-KIT BaF3 cells were above 1000 nM, above 1000 nM and below 1000 nM, respectively.

Regarding `Cc1cnc2[nH]cc(Cc3cnc(Nc4ccc(C(C)(C)C)cc4)nc3)c2c1` [Compound P-3030, (4-tert-Butyl-phenyl)-[5-(5-methyl-1H-pyrrolo[2,3-b]pyridin-3-ylmethyl)-pyrimidin-2-yl]-amine amine], the IC50 at BCR-NTRK2 BaF3 cells, on BCR-NTRK1 BaF3 cells and at BCR-KIT BaF3 cells was below 10 nM each time.

For `Cc1cnc2[nH]cc(Cc3cnc(Nc4ccc(C(O)(C(F)(F)F)C(F)(F)F)cc4)nc3)c2c1` [Compound P-3031, 1,1,1,3,3,3-Hexafluoro-2-{4-[5-(5-methyl-1H-pyrrolo[2,3-b]pyridin-3-ylmethyl)-pyrimidin-2-ylamino]-phenyl}-propan-2-ol], the IC50 on BCR-NTRK2 BaF3 cells, on BCR-NTRK1 BaF3 cells and at BCR-KIT BaF3 cells was below 10 nM throughout.

`Cc1cnc2[nH]cc(Cc3cnc(Nc4cc(C5CC5)n[nH]4)nc3)c2c1` [Compound P-3032, (5-Cyclopropyl-2H-pyrazol-3-yl)-[5-(5-methyl-1H-pyrrolo[2,3-b]pyridin-3-ylmethyl)-pyrimidin-2-yl]-amine]: the IC50 on BCR-NTRK2 BaF3 cells was above 1000 nM; on BCR-NTRK1 BaF3 cells, below 1000 nM; at BCR-KIT BaF3 cells, below 1000 nM.

Turning to `CSc1ccc(Nc2ncc(Cc3c[nH]c4ncc(C)cc34)cn2)cc1` [Compound P-3033, [5-(5-Methyl-1H-pyrrolo[2,3-b]pyridin-3-ylmethyl)-pyrimidin-2-yl]-(4-methylsulfanyl-phenyl)-amine], the figures for the IC50 on BCR-NTRK2 BaF3 cells, at BCR-NTRK1 BaF3 cells and at BCR-KIT BaF3 cells were below 100 nM, below 100 nM and below 10 nM, respectively.

`Cc1cnc2[nH]cc(Cc3cnc(Nc4ccc(S(C)(=O)=O)cc4)nc3)c2c1` [Compound P-3034, (4-Methanesulfonyl-phenyl)-[5-(5-methyl-1H-pyrrolo[2,3-b]pyridin-3-ylmethyl)-pyrimidin-2-yl]-amine]: the IC50 on BCR-NTRK2 BaF3 cells was below 1000 nM; at BCR-NTRK1 BaF3 cells, below 100 nM; on BCR-KIT BaF3 cells it was below 100 nM.

On to `CCn1ccc(Nc2ncc(Cc3c[nH]c4ncc(C)cc34)cn2)n1` [Compound P-3035, (1-Ethyl-1H-pyrazol-3-yl)-[5-(5-methyl-1H-pyrrolo[2,3-b]pyridin-3-ylmethyl)-pyrimidin-2-yl]-amine], for which the IC50 at BCR-NTRK2 BaF3 cells, at BCR-NTRK1 BaF3 cells and at BCR-KIT BaF3 cells was below 1000 nM throughout.

As to `CCn1cc(Nc2ncc(Cc3c[nH]c4ncc(C)cc34)cn2)cn1` [Compound P-3036, (1-Ethyl-1H-pyrazol-4-yl)-[5-(5-methyl-1H-pyrrolo[2,3-b]pyridin-3-ylmethyl)-pyrimidin-2-yl]-amine], the figures for the IC50 on BCR-NTRK2 BaF3 cells, at BCR-NTRK1 BaF3 cells and at BCR-KIT BaF3 cells were below 1000 nM, below 1000 nM and below 100 nM, respectively.

With `Cc1cnc2[nH]cc(Cc3cnc(Nc4cc(C(F)(F)F)n[nH]4)nc3)c2c1` [Compound P-3037, [5-(5-Methyl-1H-pyrrolo[2,3-b]pyridin-3-ylmethyl)-pyrimidin-2-yl]-(5-trifluoromethyl-2H-pyrazol-3-yl)-amine], the IC50 at BCR-NTRK2 BaF3 cells is above 10000 nM; on BCR-NTRK1 BaF3 cells it was above 1000 nM; on BCR-KIT BaF3 cells, above 1000 nM.

For the compound `Cc1cnc2[nH]cc(Cc3cnc(Nc4cc(OC(C)C)n[nH]4)nc3)c2c1` [Compound P-3038, (5-Isopropoxy-2H-pyrazol-3-yl)-[5-(5-methyl-1H-pyrrolo[2,3-b]pyridin-3-ylmethyl)-pyrimidin-2-yl]-amine], the results for the IC50 at BCR-NTRK2 BaF3 cells, on BCR-NTRK1 BaF3 cells and on BCR-KIT BaF3 cells were above 1000 nM, below 1000 nM and below 1000 nM, respectively.

As for `CCOc1ccc(Nc2ccc(Cc3c[nH]c4ncc(C)cc34)c(F)n2)cn1` [Compound P-3039, (6-ethoxy-pyridin-3-yl)-[6-fluoro-5-(5-methyl-1H-pyrrolo[2,3-b]pyridin-3-ylmethyl)-pyridin-2-yl]-amine], the IC50 on BCR-NTRK2 BaF3 cells, at BCR-NTRK1 BaF3 cells and at BCR-KIT BaF3 cells was below 1000 nM each time.

In the case of `COc1ccc(Nc2ccc(C(=O)c3c[nH]c4ncc(C)cc34)c(F)n2)cn1` [Compound P-3040, [2-Fluoro-6-(6-methoxy-pyridin-3-ylamino)-pyridin-3-yl]-(5-methyl-1H-pyrrolo[2,3-b]pyridin-3-yl)-methanone], the IC50 is below 10 nM at BCR-NTRK2 BaF3 cells, below 100 nM on BCR-NTRK1 BaF3 cells and above 1000 nM at BCR-KIT BaF3 cells.

With `Cc1cnc2[nH]cc(Cc3ccc(Nc4ccc(C)nc4)nc3F)c2c1` [Compound P-3041, [6-Fluoro-5-(5-methyl-1H-pyrrolo[2,3-b]pyridin-3-ylmethyl)-pyridin-2-yl]-(6-methyl-pyridin-3-yl)-amine], the IC50 on BCR-NTRK2 BaF3 cells, at BCR-NTRK1 BaF3 cells and at BCR-KIT BaF3 cells was below 1000 nM throughout.

Turning to `Cc1ccc(Nc2ccc(Cc3c[nH]c4ncc(Cl)cc34)c(F)n2)cn1` [Compound P-3042, [5-(5-Chloro-1H-pyrrolo[2,3-b]pyridin-3-ylmethyl)-6-fluoro-pyridin-2-yl]-(6-methyl-pyridin-3-yl)-amine], the IC50 on BCR-NTRK2 BaF3 cells was below 100 nM; at BCR-NTRK1 BaF3 cells, below 1000 nM; at BCR-KIT BaF3 cells it was below 1000 nM.

For the compound `Cc1cnc2[nH]cc(C(=O)c3ccc(Nc4ccc(C)nc4)nc3F)c2c1` [Compound P-3043, [2-Fluoro-6-(6-methyl-pyridin-3-ylamino)-pyridin-3-yl]-(5-methyl-1H-pyrrolo[2,3-b]pyridin-3-yl)-methanone], the IC50 at BCR-NTRK2 BaF3 cells is below 100 nM; on BCR-NTRK1 BaF3 cells it was below 100 nM; on BCR-KIT BaF3 cells, below 1000 nM.

Take `Cc1ccc(Nc2ccc(C(=O)c3c[nH]c4ncc(Cl)cc34)c(F)n2)cn1` [Compound P-3044, (5-Chloro-1H-pyrrolo[2,3-b]pyridin-3-yl)-[2-fluoro-6-(6-methyl-pyridin-3-ylamino)-pyridin-3-yl]-methanone]: the IC50 was below 100 nM on BCR-NTRK2 BaF3 cells, below 1000 nM on BCR-NTRK1 BaF3 cells and below 1000 nM on BCR-KIT BaF3 cells.

For `CCOc1ccc(Nc2ccc(C(=O)c3c[nH]c4ncc(C)cc34)c(F)n2)cn1` [Compound P-3045, [6-(6-ethoxy-pyridin-3-ylamino)-2-fluoro-pyridin-3-yl]-(5-methyl-1H-pyrrolo[2,3-b]pyridin-3-yl)-methanone], the IC50 at BCR-NTRK2 BaF3 cells is below 10 nM; at BCR-NTRK1 BaF3 cells, below 100 nM; on BCR-KIT BaF3 cells, below 1000 nM.

Regarding `COc1ccc(Nc2ccc(Cc3c[nH]c4ncnc(OC)c34)c(F)n2)cn1` [Compound P-4001, [6-Fluoro-5-(4-methoxy-7H-pyrrolo[2,3-d]pyrimidin-5-ylmethyl)-pyridin-2-yl]-(6-methoxy-pyridin-3-yl)-amine], the values for the IC50 at BCR-NTRK2 BaF3 cells, at BCR-NTRK1 BaF3 cells and at BCR-KIT BaF3 cells were below 100 nM, below 100 nM and below 1000 nM, respectively.

For the compound `COc1ccc(Nc2ccc(Cc3c[nH]c4ncnc(C)c34)c(F)n2)cn1` [Compound P-4002, [6-Fluoro-5-(4-methyl-7H-pyrrolo[2,3-d]pyrimidin-5-ylmethyl)-pyridin-2-yl]-(6-methoxy-pyridin-3-yl)-amine], the IC50 at BCR-NTRK2 BaF3 cells, at BCR-NTRK1 BaF3 cells and at BCR-KIT BaF3 cells was below 1000 nM each time.

In the case of `COc1ncnc2[nH]cc(Cc3ccc(Nc4ccc(Cl)nc4)nc3F)c12` [Compound P-4003, (6-Chloro-pyridin-3-yl)-[6-fluoro-5-(4-methoxy-7H-pyrrolo[2,3-d]pyrimidin-5-ylmethyl)-pyridin-2-yl]-amine], the IC50 was below 1000 nM at BCR-NTRK2 BaF3 cells, below 1000 nM on BCR-NTRK1 BaF3 cells and above 1000 nM on BCR-KIT BaF3 cells.

Consider `COc1ncnc2[nH]cc(Cc3ccc(Nc4ccc(C5CC5)nc4)nc3F)c12` [Compound P-4004, (6-Cyclopropyl-pyridin-3-yl)-[6-fluoro-5-(4-methoxy-7H-pyrrolo[2,3-d]pyrimidin-5-ylmethyl)-pyridin-2-yl]-amine], for which the figures for the IC50 at BCR-NTRK2 BaF3 cells, on BCR-NTRK1 BaF3 cells and on BCR-KIT BaF3 cells were below 10 nM, below 10 nM and below 100 nM, respectively.

For the compound `CCOc1ccc(Nc2ccc(Cc3c[nH]c4ncnc(OC)c34)c(F)n2)cn1` [Compound P-4005, (6-Ethoxy-pyridin-3-yl)-[6-fluoro-5-(4-methoxy-7H-pyrrolo[2,3-d]pyrimidin-5-ylmethyl)-pyridin-2-yl]-amine], the IC50 is below 10 nM on BCR-NTRK2 BaF3 cells, below 100 nM on BCR-NTRK1 BaF3 cells and below 100 nM on BCR-KIT BaF3 cells.

In the case of `CCOc1ccc(Nc2ccc(Cc3c[nH]c4ncnc(C)c34)c(F)n2)cn1` [Compound P-4006, (6-Ethoxy-pyridin-3-yl)-[6-fluoro-5-(4-methyl-7H-pyrrolo[2,3-d]pyrimidin-5-ylmethyl)-pyridin-2-yl]-amine], the IC50 is below 10 nM on BCR-NTRK2 BaF3 cells, below 100 nM at BCR-NTRK1 BaF3 cells and below 100 nM at BCR-KIT BaF3 cells.
